Columns and labels:
[1] = NOD mouse model of type I diabetes; cited from earlier work
[2] = reviewed in Cetkovic-Cvrlje and Ucken, 2004; cited from earlier work
[3] = Changelian et al., 2003; cited from earlier work
JAK2 = target: T1, JAK2 (Homo sapiens, UniProt O60674); assay: kinobeads assay (competition with affinity matrix in mixed Molt4/Ramos cell lysate, dot blot detection), JAK2; assay type: binding; conditions: activity level
T1 construct: endogenous in cells; host or cells: Mixed Molt4 / Ramos cell lysate (1:2)
Experimental: (§1) The compounds of the present invention as described in the previous examples were tested in a kinobeads assay as described for ZAP-70 (WO-A 2007/137867). Briefly, test compounds (at various concentrations) and the affinity matrix with the immobilized aminopyrido-pyrimidine ligand 24 were added to cell lysate aliquots and allowed to bind to the proteins in the lysate sample. After the incubation time the beads with captured proteins were separated from the lysate. Bound proteins were then eluted and the presence of, JAK2 and JAK3 was detected and quantified using specific antibodies in a dot blot procedure and the Odyssey infrared detection system. Dose response curves for individual kinases were generated and IC50 values calculated. Kinobeads assays for ZAP-70 (WO-A 2007/137867) and for kinase selectivity profiling (WO-A 2006/134056) have been previously described.
(§2) 5× DP buffer: 250 mM Tris-HCl pH 7.4, 25% Glycerol, 7.5 mM MgCl2, 750 mM NaCl, 5 mM Na3VO4; filter the 5× DP buffer through a 0.22 μm filter and store in aliquots at −80° C. The 5× DP buffer is diluted with H2O to 1× DP buffer containing 1 mM DTT and 25 mM NaF.
(§3) Stock solutions of test compounds were prepared in DMSO. In a 96 well plate 30 μl solution of diluted test compounds at 5 mM in DMSO were prepared. Starting with this solution a 1:3 dilution series (9 steps) was prepared. For control experiments (no test compound) a buffer containing 2% DMSO was used.
(§4) Molt4 cells (ATCC catalogue number CRL-1582) and Ramos cells (ATCC catalogue number CRL-1596) were grown in 1 litre Spinner flasks (Integra Biosciences, #182101) in suspension in RPMI 1640 medium (Invitrogen, #21875-034) supplemented with 10% Fetal Bovine Serum (Invitrogen) at a density between 0.15×10^6 and 1.2×10^6 cells/ml. Cells were harvested by centrifugation, washed once with 1× PBS buffer (Invitrogen, #14190-094) and cell pellets were frozen in liquid nitrogen and subsequently stored at −80° C. Cells were homogenized in a Potter S homogenizer in lysis buffer: 50 mM Tris-HCl, 0.8% NP40, 5% glycerol, 150 mM NaCl, 1.5 mM MgCl2, 25 mM NaF, 1 mM sodium vanadate, 1 mM DTT, pH 7.5. One complete EDTA-free tablet (protease inhibitor cocktail, Roche Diagnostics, 1873580) per 25 ml buffer was added. The material was dounced 10 times using a mechanized POTTER S, transferred to 50 ml falcon tubes, incubated for 30 minutes on ice and spun down for 10 min at 20,000 g at 4° C. (10,000 rpm in Sorvall SLA600, precooled). The supernatant was transferred to an ultracentrifuge (UZ)-polycarbonate tube (Beckmann, 355654) and spun for 1 hour at 100.000 g at 4° C. (33.500 rpm in Ti50.2, precooled). The supernatant was transferred again to a fresh 50 ml falcon tube, the protein concentration was determined by a Bradford assay (BioRad) and samples containing 50 mg of protein per aliquot were prepared. The samples were immediately used for experiments or frozen in liquid nitrogen and stored frozen at −80° C.
(§5) Cell lysate (approximately 50 mg protein per plate) was thawed in a water bath at room temperature and then kept on ice. To the thawed cell lysate 1× DP 0.8% NP40 buffer containing protease inhibitors (1 tablet for 25 ml buffer; EDTA-free protease inhibitor cocktail; Roche Diagnostics 1873580) was added in order to reach a final protein concentration of 5 mg/ml total protein. The diluted cell lysate was stored on ice. Mixed Molt4/Ramos lysate was prepared by combining one volume of Molt4 lysate and two volumes of Ramos lysate (ratio 1:2).
(§6) To a 96 well filter plate (Multiscreen HTS, BV Filter Plates, Millipore #MSBVN1250) were added per well: 100 μl affinity matrix (3% beads slurry), 3 μl of compound solution, and 50 μl of diluted lysate. Plates were sealed and incubated for three hours in a cold room on a plate shaker (Heidolph tiramax 1000) at 750 rpm. Afterwards the plate was washed twice with 230 μl washing buffer (1× DP 0.4% NP40). […]

JAK3 = target: T2, JAK3 (Homo sapiens, UniProt P52333); assay: kinobeads assay (competition with affinity matrix in mixed Molt4/Ramos cell lysate, dot blot detection), JAK3; assay type: binding; conditions: activity level
T2 construct: endogenous in cells; host or cells: Mixed Molt4 / Ramos cell lysate (1:2)
T2 sequence (P52333 1-1124): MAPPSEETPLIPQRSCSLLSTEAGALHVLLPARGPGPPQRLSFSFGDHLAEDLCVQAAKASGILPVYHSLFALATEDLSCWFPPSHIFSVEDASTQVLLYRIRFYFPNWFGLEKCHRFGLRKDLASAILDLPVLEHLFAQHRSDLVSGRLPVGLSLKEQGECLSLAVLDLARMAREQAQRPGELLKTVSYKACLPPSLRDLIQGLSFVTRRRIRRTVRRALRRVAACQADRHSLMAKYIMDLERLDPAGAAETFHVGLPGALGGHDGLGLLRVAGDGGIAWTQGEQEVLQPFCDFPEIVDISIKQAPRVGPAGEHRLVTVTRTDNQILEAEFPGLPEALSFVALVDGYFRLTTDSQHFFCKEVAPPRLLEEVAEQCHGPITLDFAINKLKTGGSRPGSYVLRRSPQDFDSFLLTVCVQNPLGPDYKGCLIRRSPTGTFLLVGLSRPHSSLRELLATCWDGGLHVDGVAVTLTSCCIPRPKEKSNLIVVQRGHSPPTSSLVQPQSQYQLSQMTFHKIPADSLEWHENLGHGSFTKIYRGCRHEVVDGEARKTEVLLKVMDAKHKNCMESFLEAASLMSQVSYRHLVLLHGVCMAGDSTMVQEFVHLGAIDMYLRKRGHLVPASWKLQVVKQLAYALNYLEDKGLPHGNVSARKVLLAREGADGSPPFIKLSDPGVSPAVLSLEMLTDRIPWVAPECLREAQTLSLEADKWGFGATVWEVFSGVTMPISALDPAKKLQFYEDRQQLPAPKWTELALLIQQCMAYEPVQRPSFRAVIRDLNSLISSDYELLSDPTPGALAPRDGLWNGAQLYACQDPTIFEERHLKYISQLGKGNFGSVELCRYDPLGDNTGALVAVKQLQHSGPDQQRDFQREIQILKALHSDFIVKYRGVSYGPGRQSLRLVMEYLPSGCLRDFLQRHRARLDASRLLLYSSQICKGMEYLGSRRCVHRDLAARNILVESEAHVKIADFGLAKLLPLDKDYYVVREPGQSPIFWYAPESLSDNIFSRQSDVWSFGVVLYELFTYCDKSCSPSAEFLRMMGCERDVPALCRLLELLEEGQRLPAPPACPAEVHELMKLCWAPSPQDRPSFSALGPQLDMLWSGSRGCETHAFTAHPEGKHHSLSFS
Experimental: as §1, §2, §3, §4, §5, §6

T1 sequence (O60674 whole entry): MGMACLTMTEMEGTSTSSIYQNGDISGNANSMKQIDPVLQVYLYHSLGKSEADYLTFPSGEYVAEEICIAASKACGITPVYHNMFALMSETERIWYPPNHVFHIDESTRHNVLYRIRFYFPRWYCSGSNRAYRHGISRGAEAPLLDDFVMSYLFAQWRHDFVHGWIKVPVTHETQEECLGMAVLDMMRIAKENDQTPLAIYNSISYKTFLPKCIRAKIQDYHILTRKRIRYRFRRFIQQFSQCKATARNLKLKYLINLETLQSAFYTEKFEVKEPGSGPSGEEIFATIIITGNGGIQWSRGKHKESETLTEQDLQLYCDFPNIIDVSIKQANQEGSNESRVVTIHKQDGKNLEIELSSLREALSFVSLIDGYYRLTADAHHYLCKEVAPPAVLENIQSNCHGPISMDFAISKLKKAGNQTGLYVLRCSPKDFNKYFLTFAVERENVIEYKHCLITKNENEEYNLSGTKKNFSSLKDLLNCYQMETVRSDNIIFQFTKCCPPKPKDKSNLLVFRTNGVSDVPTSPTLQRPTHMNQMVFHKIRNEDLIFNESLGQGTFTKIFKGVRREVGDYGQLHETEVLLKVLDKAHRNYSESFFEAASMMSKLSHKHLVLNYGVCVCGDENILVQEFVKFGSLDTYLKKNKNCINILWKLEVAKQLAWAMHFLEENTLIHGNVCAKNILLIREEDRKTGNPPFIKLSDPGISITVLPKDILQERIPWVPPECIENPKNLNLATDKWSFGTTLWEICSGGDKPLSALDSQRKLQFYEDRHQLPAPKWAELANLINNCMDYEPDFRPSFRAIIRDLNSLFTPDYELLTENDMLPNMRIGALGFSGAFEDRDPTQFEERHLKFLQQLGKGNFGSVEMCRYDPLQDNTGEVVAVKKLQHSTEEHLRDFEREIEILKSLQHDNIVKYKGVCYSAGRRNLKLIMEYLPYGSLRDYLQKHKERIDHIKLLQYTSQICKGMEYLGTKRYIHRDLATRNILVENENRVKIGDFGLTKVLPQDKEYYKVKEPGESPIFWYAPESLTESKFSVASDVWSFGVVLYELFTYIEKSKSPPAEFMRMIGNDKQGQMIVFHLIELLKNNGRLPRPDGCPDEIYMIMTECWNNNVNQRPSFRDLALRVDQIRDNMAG

| SMILES | spontaneous autoimmune diabetes development [1] | severity of GVHD [2] | efficacy in an animal model of organ transplantation [3] | IC50 (JAK2) [µM] | IC50 (JAK3) [nM] |
| --- | --- | --- | --- | --- | --- |
| COc1cc2ncnc(Nc3ccc(O)cc3)c2cc1OC [JANEX-1] | prevent spontaneous autoimmune diabetes development | attenuate the severity of GVHD | – | – | – |
| C[C@@H]1CCN(C(=O)CC#N)C[C@@H]1N(C)c1ncnc2[nH]ccc12 [CP-690,550] | – | – | show efficacy | – | – |
| CS(=O)(=O)Nc1ccccc1Nc1nc(Nc2cc(C(N)=O)ccc2F)ncc1F [Example 29, 4-fluoro-3-(5-fluoro-4-(2-(methylsulfonamido)phenylamino)pyrimidin-2-ylamino)benzamide] | – | – | – | > 10 | 100 to 1000 |
| CS(=O)(=O)Nc1c(F)cccc1Nc1nc(Nc2cc(-n3cnnn3)ccc2F)ncc1F [Example 3, N-(2-fluoro-6-(5-fluoro-2-(2-fluoro-5-(1H-tetrazol-1-yl)phenylamino)pyrimidin-4-ylamino)phenyl)methanesulfonamide] | – | – | – | > 10 | < 100 |
| CCNC(=O)c1ccc(F)c(Nc2ncc(Cl)c(Nc3ccccc3NS(=O)(=O)CC(F)(F)F)n2)c1 [Example 44, 3-(5-chloro-4-(2-(2,2,2-trifluoroethylsulfonamido)phenylamino)pyrimidin-2-ylamino)-N-ethyl-4-fluorobenzamide] | – | – | – | > 10 | 100 to 1000 |
| CNC(=O)c1ccc(F)c(Nc2ncc(Cl)c(Nc3ccccc3NS(C)(=O)=O)n2)c1 [Example 21, 3-(5-chloro-4-(2-(methylsulfonamido)phenylamino)pyrimidin-2-ylamino)-4-fluoro-N-methybenzamide] | – | – | – | 1 to 10 | < 100 |

Source: patent publication US20120040955A1 (priority 2009, published 2012)
